Results reported in PubChem BioAssay AID1918955 (Molecular Pharmacology Branch, DTP, NCI, 2023).

System: NCI/ADR-RES complex spheroid viability
Assay: Anticancer human tumor NCI/ADR-RES cell line growth inhibition;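 note: spheroids exposed to compounds for 7 days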;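 for viability, T/C: 100% = DMSO vehicle treated spheroids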
Conditions: for IC50: curve of first compound; for viability, T/C: stronger effect = lower value; active = viability on the fitted dose curve at most 10% of control; inactive = the rest
Description: Multicellular complex tumor spheroid response to LSD1 Inhibitor Iadademstat in combination with a variety of drugs and investigational agents in selected tumor cell lines
The current study was undertaken to assess response to LSD1 inhibitors in combination with standard-of-care drugs and investigational agents in solid tumor complex spheroid models as well as in the K-562 leukemia. Complex spheroids include a stromal component modeled by human endothelial cells (HUVEC) and fibroblasts modeled by human mesenchymal stem cells (MSCs). The concentration ranges selected for each drug and investigational agent were based upon clinically achievable concentrations if the clinical Cmax of the agent was known.
Compounds. The drugs and investigational agents used in this study are listed on Table 1. All of the agents used, including staurosporine (NSC755774) and gemcitabine (NSC613327), were obtained from the Developmental Therapeutics Program, NCI. FDA-approved anticancer drugs are available from the NCI at http://dtp.nci.nih.gov/branches/dscb/oncology_drugset_explanation.html. Drugs and investigational agents were >95% pure by proton nuclear magnetic resonance (NMR) and liquid chromatography/mass spectrometry (LC/MS). Stock solutions were prepared at 400x in DMSO, stored at -70 degrees C, and diluted in fresh medium prior to their use. The final concentration of DMSO in cell culture wells never exceeded 0.25% (v/v). The FDA-approved anticancer drug set is available from the Developmental Therapeutics Program at https://dtp.cancer.gov/organization/dscb/obtaining/available_plates.htm. All drugs and investigational agents were tested over a range starting from a high concentration at or near the clinical Cmax and decreasing in half-log increments. If the clinical Cmax for an agent had not been determined, the highest concentration tested was 10 microM.
Cell Lines. The patient-derived cancer cell (PDC) lines: 292921-168-R-J2-PDC, K24384-001-R-PDC, and 521955-158-R2-J5-PDC pancreatic carcinomas, 556581-035-R-J1 ovarian carcinoma, 324938-238-R-J1-PDC, 855422-203-R-J1-PDC and 883617-216-R-J1-PDC urothelial bladder carcinomas, 743489-274-T-PDC renal cell carcinoma, 138582-R-J1 Merkel cell tumor, K60290-347-R-J1 and K57222-313-R-J1-PDC glioblastomas, 653999-131-R-J2-PDC, LG0703-F948-PDC, and 349418-098-R-PDC non-small cell lung carcinomas, 885512-296-R-J2-PDC, 171881-019-R-J1-PDC breast carcinomas and 186277-243-T-J2-PDC and 233499-124-R-J2-PDC colon carcinomas were obtained from the NCI Patient-Derived Models Repository (PDMR, https://pdmr.cancer.gov). The established cell lines NCI/ADR-RES (RRID:CVCL_14520 and OVCAR-5 (RRID:CVCL_1628) ovarian carcinomas, 786-O (RRID:CVCL_1051) and A498 (RRID:CVCL_A498) renal cell carcinoma, NCI-H211 (ATCC, cat. CRL-5824; RRID:CVCL_1529), NCI-H196 (ATCC, cat. CRL-5823, RRID:CVCL_1509), SW 1271 (ATCC, cat. CRL-2177, RRID:CVCL_1716) and NCI-H1876 (ATCC, cat. CRL-5902, RRID:CVCL_1503) small cell lung carcinomas, MDA-MB-231 (RRID:CVCL_0062) and MDA-MB-468 (RRID:CVCL_0419)breast carcinomas (10-12). Pooled donor human umbilical vein endothelial cells (HUVEC, Lonza, cat. CC-2519) and human mesenchymal stem cells (hMSC, Lonza, cat. PT-2501) were purchased from Lonza (Walkersville, MD).
Cell Culture. All cells were maintained in an incubator at 37 degrees C and 5% CO2 with 95% humidity. The PDC lines were cultured according to standard operating procedures established by the NCI PDMR (https://pdmr.cancer.gov). Briefly all PDCs were thawed and cultured in Matrigel-coated flasks prepared with a working solution of 1X Ham's F-12 nutrient mix, without supplementation (Invitrogen, Waltham, MA, cat. 11765054), 100 U/mL penicillin-streptomycin (Invitrogen, cat. 15140122), and 2.5% Matrigel (Corning Inc., Corning, NY, cat. 354248) for the first three passages. […]

COc1cc(Nc2ncc3c(n2)-c2ccc(Cl)cc2C(c2c(F)cccc2OC)=NC3)ccc1C(=O)O + NC1CC1c1ccc(-c2cccc(O)c2)cc1
0.0169 µM: IC50 (second compound 0.1 µM)
0.0183 µM: IC50 (second compound 0.316 µM)
inactive: viability, T/C (second compound 0.1 µM, first compound 0.00316 µM) 86% | viability, T/C (second compound 0.1 µM, first compound 0.01 µM) 64.9% | viability, T/C (second compound 0.1 µM, first compound 0.0316 µM) 32.5% | viability, T/C (second compound 0.1 µM, first compound 0.1 µM) 16% | viability, T/C (second compound 0.1 µM, first compound 0.316 µM) 15.4% | viability, T/C (second compound 0.1 µM, first compound 1 µM) 14.4% | viability, T/C (second compound 0.316 µM, first compound 0.00316 µM) 93.5% | viability, T/C (second compound 0.316 µM, first compound 0.01 µM) 65.8% | viability, T/C (second compound 0.316 µM, first compound 0.0316 µM) 36.7% | viability, T/C (second compound 0.316 µM, first compound 0.1 µM) 18% | viability, T/C (second compound 0.316 µM, first compound 0.316 µM) 15.7% | viability, T/C (second compound 0.316 µM, first compound 1 µM) 17.3% | viability, T/C (second compound 1 µM, first compound 0.00316 µM) 89.7% | viability, T/C (second compound 1 µM, first compound 0.01 µM) 62.2% | viability, T/C (second compound 1 µM, first compound 0.0316 µM) 38.1% | viability, T/C (second compound 1 µM, first compound 0.1 µM) 19.7% | viability, T/C (second compound 1 µM, first compound 0.316 µM) 14.4% | viability, T/C (second compound 1 µM, first compound 1 µM) 12% | viability, T/C (second compound 3.16 µM, first compound 0.00316 µM) 88.6% | viability, T/C (second compound 3.16 µM, first compound 0.01 µM) 63.6% | viability, T/C (second compound 3.16 µM, first compound 0.0316 µM) 41.8% | viability, T/C (second compound 3.16 µM, first compound 0.1 µM) 19.4% | viability, T/C (second compound 3.16 µM, first compound 0.316 µM) 15.9% | viability, T/C (second compound 3.16 µM, first compound 1 µM) 11.8% | viability, T/C (second compound 10 µM, first compound 0.00316 µM) 79.2% | viability, T/C (second compound 10 µM, first compound 0.01 µM) 57.8% | viability, T/C (second compound 10 µM, first compound 0.0316 µM) 41.2% | viability, T/C (second compound 10 µM, first compound 0.1 µM) 23.6% | viability, T/C (second compound 10 µM, first compound 0.316 µM) 13% | viability, T/C (second compound 10 µM, first compound 1 µM) 11.9%
0.0195 µM: IC50 (second compound 3.16 µM)
0.0176 µM: IC50 (second compound 1 µM)
0.0171 µM: IC50 (second compound 10 µM)
